Measurements published in the supplement of paper PMC10307832.

What was measured:
Experiment in all cases: relative viability (nuclei count vs DMSO), 5 days (fraction); higher = more cells survive
[1] = compound: Cc1nc(C(=O)NCC(=O)O)c(O)c2ccc(Oc3ccccc3)cc12 [FG-4592] + CCNC(=O)c1noc(-c2cc(C(C)C)c(O)cc2O)c1-c1ccc(CN2CCOCC2)cc1 [Luminespib] (partner 0.01 µM)
How it was run: (§1)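 Lung cancer cell lines were pin-tool dosed in 1536-well plates on the day after seeding, with either a lone drug or a fixed anchor-drug dose plus five library-drug doses (not always all listed) in √10 steps. Nuclei were counted on 4× images after 5 days. Relative viability is the ratio of treated-well to vehicle-well nuclei counts, with each value a median of duplicate plates.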

[2] = compound: CC1=CC(=C(N1C2=CC=C(C=C2)Cl)C)C(=O)CN3CCCCC3 [IU1-47] + C[C@]1(O)C[C@@H](c2nc(-c3ccc4ccc(-c5ccccc5)nc4c3)c3c(N)nccn32)C1 [Linsitinib] (partner 1 µM)
How it was run: as §1

[3] = compound: CC1=CC(=C(N1C2=CC=C(C=C2)Cl)C)C(=O)CN3CCCCC3 [IU1-47] + COc1cccc2cc(-c3nc([C@H]4CC[C@H](C(=O)O)CC4)n4ncnc(N)c34)[nH]c12 [OSI-027] (partner 0.5 µM)
How it was run: as §1

[4] = compound: CC1=CC(=C(N1C2=CC=C(C=C2)Cl)C)C(=O)CN3CCCCC3 [IU1-47] + N=C(N)NC(=N)NCCc1ccccc1 [Phenformin] (partner 250 µM)
How it was run: as §1

Cell Line | relative viability ([1]; first compound 0.08 µM) | relative viability ([1]; first compound 0.253 µM) | relative viability ([1]; first compound 0.8 µM) | relative viability ([1]; first compound 2.53 µM) | relative viability ([1]; first compound 8 µM) | relative viability ([2]; first compound 0.08 µM) | relative viability ([2]; first compound 0.253 µM) | relative viability ([2]; first compound 0.8 µM) | relative viability ([2]; first compound 2.53 µM) | relative viability ([2]; first compound 8 µM) | relative viability ([3]; first compound 0.08 µM) | relative viability ([3]; first compound 0.253 µM) | relative viability ([3]; first compound 0.8 µM) | relative viability ([3]; first compound 2.53 µM) | relative viability ([3]; first compound 8 µM) | relative viability ([4]; first compound 0.08 µM) | relative viability ([4]; first compound 0.253 µM) | relative viability ([4]; first compound 0.8 µM) | relative viability ([4]; first compound 2.53 µM) | relative viability ([4]; first compound 8 µM)
COR-L 105 | 0.779 | 0.696 | 0.752 | 0.847 | 0.776 | 1.02 | 0.875 | 1.08 | 1.03 | 0.89 | 0.746 | 0.634 | 0.711 | 0.581 | 0.57 | 0.418 | 0.438 | 0.506 | 0.501 | 0.454
NCI-H1975 | 0.305 | 0.244 | 0.2 | 0.187 | 0.0934 | 1.06 | 1.17 | 1.11 | 0.98 | 0.752 | 0.69 | 0.817 | 0.779 | 0.94 | 0.531 | 0.411 | 0.411 | 0.409 | 0.419 | 0.384
NCI-H1993 | 0.806 | 0.868 | 0.771 | 0.984 | 0.869 | 0.762 | 0.732 | 0.749 | 0.76 | 0.73 | 0.492 | 0.586 | 0.498 | 0.498 | 0.567 | 0.488 | 0.493 | 0.516 | 0.506 | 0.498
RERF-LC-KJ | 1.23 | 1.24 | 1.45 | 1.17 | 0.991 | 0.889 | 0.865 | 0.872 | 0.957 | 0.893 | 0.596 | 0.586 | 0.565 | 0.36 | 0.567 | 0.415 | 0.423 | 0.421 | 0.493 | 0.411
NCI-H23 | 0.208 | 0.247 | 0.179 | 0.203 | 0.184 | 0.607 | 0.741 | 0.686 | 0.665 | 0.533 | 0.644 | 0.587 | 0.695 | 0.583 | 0.597 | 0.757 | 0.884 | 0.904 | 0.678 | 0.828
EMC-BAC-2 | 1.2 | 1.11 | 1.1 | 1.17 | 1.11 | 0.857 | 0.829 | 0.841 | 0.864 | 0.774 | 0.392 | 0.368 | 0.374 | 0.38 | 0.362 | 0.548 | 0.569 | 0.53 | 0.627 | 0.409
NCI-H2405 | 0.577 | – | 0.675 | 0.691 | 0.658 | 1.02 | 1.1 | 1.01 | – | 0.932 | 0.664 | 0.663 | 0.695 | 0.533 | 0.618 | 0.404 | 0.415 | 0.386 | 0.371 | 0.365
NCI-H358 | 0.311 | 0.36 | 0.426 | 0.395 | 0.238 | 0.737 | 0.791 | 0.75 | – | 0.703 | 0.889 | 1.15 | 1.04 | 0.676 | 0.82 | 0.328 | 0.323 | 0.339 | 0.307 | 0.274
